{
  "source": "ChEMBL document CHEMBL3046411",
  "about": "“Synthesis and antioxidant studies of novel N-substituted benzyl/phenyl-2-(3,4-dimethyl-5,5-dioxidopyrazolo[4,3-c][1,2]benzothiazin-2(4H)-yl)acetamides” (Med Chem Res, 2013)",
  "key": {"[1]": {"assay": "Antioxidant activity assessed as superoxide anion radical scavenging activity at 1 mM", "assay_type": "functional"}, "[2]": {"system": "Radical scavenging activity", "assay": "Antioxidant activity assessed as DPPH radical scavenging activity at 0.5 mM after 30 min", "assay_type": "functional"}},
  "data": [
    {"smiles": "Cc1c2c(nn1CC(=O)Nc1cccc(Br)c1)-c1ccccc1S(=O)(=O)N2C", "values": [
      {"measurement": "Activity", "setting": "[1]", "value": 47.1, "unit": "%"},
      {"measurement": "Activity", "setting": "[2]", "value": 26.1, "unit": "%"}
    ]},
    {"smiles": "Cc1c2c(nn1CC(=O)Nc1ccc(Cl)cc1)-c1ccccc1S(=O)(=O)N2C", "values": [
      {"measurement": "Activity", "setting": "[1]", "value": 55.6, "unit": "%"},
      {"measurement": "Activity", "setting": "[2]", "value": 25.4, "unit": "%"}
    ]},
    {"smiles": "Cc1c2c(nn1CC(=O)Nc1ccccc1Cl)-c1ccccc1S(=O)(=O)N2C", "values": [
      {"measurement": "Activity", "setting": "[1]", "value": 61, "unit": "%"},
      {"measurement": "Activity", "setting": "[2]", "value": 21.8, "unit": "%"}
    ]},
    {"smiles": "COc1ccc(NC(=O)Cn2nc3c(c2C)N(C)S(=O)(=O)c2ccccc2-3)c(OC)c1", "values": [
      {"measurement": "Activity", "setting": "[1]", "value": 78.3, "unit": "%"},
      {"measurement": "Activity", "setting": "[2]", "value": 39.8, "unit": "%"}
    ]},
    {"smiles": "COc1ccc(CNC(=O)Cn2nc3c(c2C)N(C)S(=O)(=O)c2ccccc2-3)c(OC)c1", "values": [
      {"measurement": "Activity", "setting": "[1]", "value": 58.3, "unit": "%"},
      {"measurement": "Activity", "setting": "[2]", "value": 27.3, "unit": "%"}
    ]},
    {"smiles": "Cc1c2c(nn1CC(=O)NCc1ccc(F)cc1)-c1ccccc1S(=O)(=O)N2C", "values": [
      {"measurement": "Activity", "setting": "[1]", "value": 42.3, "unit": "%"},
      {"measurement": "Activity", "setting": "[2]", "value": 15.8, "unit": "%"}
    ]},
    {"smiles": "COc1cccc(CNC(=O)Cn2nc3c(c2C)N(C)S(=O)(=O)c2ccccc2-3)c1", "values": [
      {"measurement": "Activity", "setting": "[1]", "value": 25.9, "unit": "%"},
      {"measurement": "Activity", "setting": "[2]", "value": 16.2, "unit": "%"}
    ]},
    {"smiles": "Cc1c2c(nn1CC(=O)NCc1cccc(Br)c1)-c1ccccc1S(=O)(=O)N2C", "values": [
      {"measurement": "Activity", "setting": "[1]", "value": 32.5, "unit": "%"},
      {"measurement": "Activity", "setting": "[2]", "value": 14.1, "unit": "%"}
    ]},
    {"smiles": "COc1cccc(NC(=O)Cn2nc3c(c2C)N(C)S(=O)(=O)c2ccccc2-3)c1", "values": [
      {"measurement": "Activity", "setting": "[1]", "value": 47.4, "unit": "%"},
      {"measurement": "Activity", "setting": "[2]", "value": 20.2, "unit": "%"}
    ]},
    {"smiles": "Cc1c2c(nn1CC(=O)Nc1ccccc1Br)-c1ccccc1S(=O)(=O)N2C", "values": [
      {"measurement": "Activity", "setting": "[1]", "value": 79.1, "unit": "%"},
      {"measurement": "Activity", "setting": "[2]", "value": 27.6, "unit": "%"}
    ]},
    {"smiles": "Cc1c2c(nn1CC(=O)Nc1ccc(F)cc1)-c1ccccc1S(=O)(=O)N2C", "values": [
      {"measurement": "Activity", "setting": "[1]", "value": 44.1, "unit": "%"},
      {"measurement": "Activity", "setting": "[2]", "value": 22.1, "unit": "%"}
    ]},
    {"smiles": "Cc1ccccc1CNC(=O)Cn1nc2c(c1C)N(C)S(=O)(=O)c1ccccc1-2", "values": [
      {"measurement": "Activity", "setting": "[1]", "value": 81.5, "unit": "%"},
      {"measurement": "Activity", "setting": "[2]", "value": 15.2, "unit": "%"}
    ]},
    {"smiles": "COc1ccccc1NC(=O)Cn1nc2c(c1C)N(C)S(=O)(=O)c1ccccc1-2", "values": [
      {"measurement": "Activity", "setting": "[1]", "value": 53.8, "unit": "%"},
      {"measurement": "Activity", "setting": "[2]", "value": 26.9, "unit": "%"}
    ]},
    {"smiles": "COc1ccc(O)c(C(C)(C)C)c1.COc1ccc(O)cc1C(C)(C)C", "values": [
      {"measurement": "Activity", "setting": "[2]", "value": 92.6, "unit": "%"}
    ]},
    {"smiles": "Cc1c2c(nn1CC(=O)NCc1ccccc1Cl)-c1ccccc1S(=O)(=O)N2C", "values": [
      {"measurement": "Activity", "setting": "[1]", "value": 52.5, "unit": "%"},
      {"measurement": "Activity", "setting": "[2]", "value": 17.1, "unit": "%"}
    ]},
    {"smiles": "CCCOC(=O)c1cc(O)c(O)c(O)c1", "values": [
      {"measurement": "Activity", "setting": "[1]", "value": 90.8, "unit": "%"}
    ]},
    {"smiles": "Cc1c2c(nn1CC(=O)NCc1ccc(Cl)cc1)-c1ccccc1S(=O)(=O)N2C", "values": [
      {"measurement": "Activity", "setting": "[1]", "value": 47.2, "unit": "%"},
      {"measurement": "Activity", "setting": "[2]", "value": 16.7, "unit": "%"}
    ]},
    {"smiles": "Cc1c2c(nn1CC(=O)Nc1ccccc1)-c1ccccc1S(=O)(=O)N2C", "values": [
      {"measurement": "Activity", "setting": "[1]", "value": 28.6, "unit": "%"},
      {"measurement": "Activity", "setting": "[2]", "value": 18.3, "unit": "%"}
    ]},
    {"smiles": "Cc1c2c(nn1CC(=O)NCc1ccccc1F)-c1ccccc1S(=O)(=O)N2C", "values": [
      {"measurement": "Activity", "setting": "[1]", "value": 48.5, "unit": "%"},
      {"measurement": "Activity", "setting": "[2]", "value": 20.2, "unit": "%"}
    ]},
    {"smiles": "COc1ccc(CNC(=O)Cn2nc3c(c2C)N(C)S(=O)(=O)c2ccccc2-3)cc1", "values": [
      {"measurement": "Activity", "setting": "[1]", "value": 33.1, "unit": "%"},
      {"measurement": "Activity", "setting": "[2]", "value": 23.7, "unit": "%"}
    ]},
    {"smiles": "COc1ccccc1CNC(=O)Cn1nc2c(c1C)N(C)S(=O)(=O)c1ccccc1-2", "values": [
      {"measurement": "Activity", "setting": "[1]", "value": 38.8, "unit": "%"},
      {"measurement": "Activity", "setting": "[2]", "value": 25.6, "unit": "%"}
    ]},
    {"smiles": "Cc1c2c(nn1CC(=O)NCc1ccccc1Br)-c1ccccc1S(=O)(=O)N2C", "values": [
      {"measurement": "Activity", "setting": "[1]", "value": 64, "unit": "%"},
      {"measurement": "Activity", "setting": "[2]", "value": 21.1, "unit": "%"}
    ]},
    {"smiles": "Cc1ccc(CNC(=O)Cn2nc3c(c2C)N(C)S(=O)(=O)c2ccccc2-3)cc1", "values": [
      {"measurement": "Activity", "setting": "[1]", "value": 57.8, "unit": "%"},
      {"measurement": "Activity", "setting": "[2]", "value": 17.9, "unit": "%"}
    ]},
    {"smiles": "Cc1c2c(nn1CC(=O)Nc1ccccc1F)-c1ccccc1S(=O)(=O)N2C", "values": [
      {"measurement": "Activity", "setting": "[1]", "value": 47.7, "unit": "%"},
      {"measurement": "Activity", "setting": "[2]", "value": 23.1, "unit": "%"}
    ]}
  ]
}
